Consider 4 compounds from patent US20190337921A1, “TETRASUBSTITUTED ALKENE COMPOUNDS AND THEIR USE” (Eisai R&D Management Co., Ltd., priority 2016, published 2019).

The subject of test [1] is MCF7-WT cells (WT ER, MCF7.6). Put plainly: In vitro proliferation (viability) assay, CellTiter-Glo, MCF7-WT. The format is cell-based. As to conditions: Homo sapiens, CTG on day 6 compared to day 0, read-out: WT ER CTGlo MCF7.6 GI50 Mean. As for the experimental part: (§1) MCF7 BUS cells (Coser, et al., (2003) PNAS 100(24): 13994-13999) were maintained in Dulbecco's Modified Eagle Medium supplemented with 10%/o FBS, 4 mM L-glutamine and 1× non-essential amino acids. Lenti-X 293T cells (Clontech, Cat #632180) were routinely cultured in Dulbecco's Modified Eagle Medium supplemented with 10% FBS.
(§2) The QuikChange II XL Site-Directed Mutagenesis Kit (Agilent Technologies, Cat #200523) was used to generate Y537S, Y537C, Y537N and D538G mutations within the ERα exon 8. […]
(§3) MCF7-WT and —Y537S cells were seeded at 1500 cells/well in black-walled 96-well plates (assay plates. Costar, Cat #3904). In parallel, cells were also seeded in a separate 96-well plate (8 wells/cell line, control plate) for which a CTG (CellTiter-Glo® Luminescent Viability Assay, Promega, Cat #G7572) was measured the following day (day 0 reading). The day 0 reading was used for the GI50 calculation at the termination of the experiment. […] CTG was measured and compared to day 0 readings from control plate to assess GI50.

Test [2] relates to MCF7-Y537S cells (Y537S ER, MCF7.7). Put plainly: In vitro proliferation (viability) assay, CellTiter-Glo, MCF7-Y537S. The format is cell-based. The conditions noted are these: Homo sapiens, CTG on day 6 compared to day 0, read-out: Y537S ER CTGlo MCF7.7 GI50 Mean. The protocol:
as §1, §2, §3
In general terms: Cellular ATP, detected with luciferase, serves as a proxy for viable cell number.

Test [3] concerns MCF7 cells with ectopic expression of ERα Y537S/N/C, D538G. Briefly: In vitro proliferation of wild-type and mutant ER-bearing MCF7 lines with clinical therapies (FIG. 1). The format is cell-based, human. The protocol: 48 h post-transfection, virus containing media was filtered and added to MCF7 cells in the presence of 8 μg/ml polybrene overnight. Two days following infection, cells were placed under selection with 10 μg/ml blasticidin for 2 weeks for stable expression.
In parallel, cells were also seeded in a separate 96-well plate (8 wells/cell line, control plate) for which a CTG (CellTiter-Glo® Luminescent Viability Assay, Promega, Cat #G7572) was measured the following day (day 0 reading). The day 0 reading was used for the GI50 calculation at the termination of the experiment. The day following seeding, compounds were added to assay plates. Briefly, a 1:4 serial dilution was prepared in DMSO at 200× final concentration for a total of 10 concentrations (9 dilutions containing compound and one is DMSO only). Serially diluted compounds were pipetted into medium to prepare a compound-medium mix at 10× final concentration. 10 μl of compound-medium mix was added to MCF7-WT and —Y537S cells at 3 wells/concentration (triplicate for each concentration). On day 3, media-compound was removed and replaced with fresh media/compound as described above. On day 6. CTG was measured and compared to day 0 readings from control plate to assess GI50.

In general, GI50 refers to the concentration giving 50% growth inhibition. Turning to `CC/C(=C(/c1ccc(OCCNC/C=C/C(=O)N(C)C)cc1)c1ccc2[nH]ccc2c1)c1ccccc1` [Compound 102, (E)-4-(2-(4-((E)-1-(1H-indol-5-yl)-2-phenylbut-1-enyl)phenoxy)ethylamino)-N,N-dimethylbut-2-enamide], the GI50 was 0.00175 µM in test [1] and 0.0275 µM in test [2].

Turning to `C[C@]12CC[C@@H]3c4ccc(O)cc4C[C@@H](CCCCCCCCC[S+]([O-])CCCC(F)(F)C(F)(F)F)[C@H]3[C@@H]1CC[C@@H]2O` (some centres unmarked) [fulvestrant], the “Resistance of ERα mutant-bearing MCF7 lines relative to control lines” value in test [3] was “phenotypic resistance”. As to `O=C(c1ccc(OCCN2CCCCC2)cc1)c1c(-c2ccc(O)cc2)sc2cc(O)ccc12` [raloxifene], the “Resistance of ERα mutant-bearing MCF7 lines relative to control lines” value in test [3] is given as “phenotypic resistance”. For the compound `CC/C(=C(\c1ccccc1)c1ccc(OCCN(C)C)cc1)c1ccccc1` [tamoxifen], the “Resistance of ERα mutant-bearing MCF7 lines relative to control lines” value in test [3] is listed as “phenotypic resistance”.
